We go through two compounds from ChEMBL document CHEMBL4507259 (2021).

Assay [1] addresses Sigma intracellular receptor 2 (Homo sapiens, UniProt Q5BJF2). In words: GPCRScan assay: inhibition of Sigma 2. Also noted: radioligand conc. used [nm] 5.0, parental cells HEKT. The note with it: for pKi: read-out: Ki.
Assay [2] addresses Kappa-type opioid receptor (Homo sapiens) (UniProt P41145). In words: kappa (KOP) CEREP ligand profiling. The note with it: filed as agonist; Compound concentration 10.0 uM.
Assay [3] concerns the target P2X receptor (Rattus norvegicus) (UniProt P51579+P49653+P51578+Q64663+P47824+P51577+P49654). In words: P2X CEREP ligand profiling. It counts as protein assay. The note with it: filed as agonist; Compound concentration 10.0 uM.
Assay [4] concerns Tyrosine-protein kinase ABL1 (Homo sapiens), P00519 [T315I]. The settings on record: Compound concentration 1000.0 nM.
In assay [5] the target is RAC-beta serine/threonine-protein kinase (Homo sapiens) (UniProt P31751). The note with it: Compound concentration 1000.0 nM.
RAC-beta serine/threonine-protein kinase (Homo sapiens), sequence (P31751 whole entry): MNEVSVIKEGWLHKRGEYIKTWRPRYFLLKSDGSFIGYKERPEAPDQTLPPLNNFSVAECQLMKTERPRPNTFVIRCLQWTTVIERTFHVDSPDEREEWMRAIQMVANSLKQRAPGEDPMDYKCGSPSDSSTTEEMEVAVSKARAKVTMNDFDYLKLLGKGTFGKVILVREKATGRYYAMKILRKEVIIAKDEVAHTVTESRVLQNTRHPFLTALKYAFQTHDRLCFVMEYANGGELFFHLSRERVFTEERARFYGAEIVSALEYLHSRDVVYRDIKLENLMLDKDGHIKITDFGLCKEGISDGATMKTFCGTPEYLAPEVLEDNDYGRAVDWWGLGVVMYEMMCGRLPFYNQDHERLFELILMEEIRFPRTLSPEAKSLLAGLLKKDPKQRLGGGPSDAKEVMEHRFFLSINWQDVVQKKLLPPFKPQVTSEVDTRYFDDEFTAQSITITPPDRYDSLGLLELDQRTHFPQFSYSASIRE
Assay [6] deals with BMP-2-inducible protein kinase (Homo sapiens) (UniProt Q9NSY1). The note with it: Compound concentration 1000.0 nM.
Assay [7] addresses Calcium/calmodulin-dependent protein kinase type IV (Homo sapiens) (UniProt Q16566). The settings on record: Compound concentration 1000.0 nM.
Assay [8] addresses Cyclin-dependent kinase 4 (Homo sapiens) (UniProt P11802). The settings on record: Compound concentration 1000.0 nM.
Assay [9] deals with Inhibitor of nuclear factor kappa-B kinase subunit beta (Homo sapiens) (UniProt O14920). The note with it: Compound concentration 1000.0 nM.
Inhibitor of nuclear factor kappa-B kinase subunit beta (Homo sapiens), sequence (O14920 whole entry): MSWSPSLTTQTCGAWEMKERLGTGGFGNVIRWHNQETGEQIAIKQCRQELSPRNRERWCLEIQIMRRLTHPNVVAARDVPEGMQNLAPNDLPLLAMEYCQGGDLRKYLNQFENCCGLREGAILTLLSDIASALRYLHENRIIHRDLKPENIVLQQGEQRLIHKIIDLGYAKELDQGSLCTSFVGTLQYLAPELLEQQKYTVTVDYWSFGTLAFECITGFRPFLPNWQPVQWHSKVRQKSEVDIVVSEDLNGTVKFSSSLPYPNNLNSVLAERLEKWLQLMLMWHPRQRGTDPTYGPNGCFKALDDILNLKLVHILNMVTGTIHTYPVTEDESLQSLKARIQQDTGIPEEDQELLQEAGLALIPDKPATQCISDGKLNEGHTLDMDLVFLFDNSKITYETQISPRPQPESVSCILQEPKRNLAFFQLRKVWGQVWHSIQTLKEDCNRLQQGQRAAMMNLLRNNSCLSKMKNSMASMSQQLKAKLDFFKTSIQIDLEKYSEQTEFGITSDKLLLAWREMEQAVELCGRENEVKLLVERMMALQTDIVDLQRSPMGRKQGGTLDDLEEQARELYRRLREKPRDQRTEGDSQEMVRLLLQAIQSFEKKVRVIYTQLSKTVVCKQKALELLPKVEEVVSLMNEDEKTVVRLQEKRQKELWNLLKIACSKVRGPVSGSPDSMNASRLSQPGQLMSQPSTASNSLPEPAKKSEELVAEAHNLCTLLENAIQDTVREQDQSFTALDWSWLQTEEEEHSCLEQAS
Assay [10] deals with Insulin receptor (Homo sapiens) (UniProt P06213). The note with it: Compound concentration 1000.0 nM.
Assay [11] has as its system Mast/stem cell growth factor receptor Kit (Homo sapiens), P10721 [L576P]. The settings on record: Compound concentration 1000.0 nM.
The target in assay [12] is Misshapen-like kinase 1 (Homo sapiens) (UniProt Q8N4C8). The note with it: Compound concentration 1000.0 nM.
Assay [13] concerns the target Serine/threonine-protein kinase MRCK beta (Homo sapiens) (UniProt Q9Y5S2). The note with it: Compound concentration 1000.0 nM.
In assay [14] the target is Calcium-dependent protein kinase 1 (Plasmodium falciparum) (UniProt P62344). The settings on record: Compound concentration 1000.0 nM.
Calcium-dependent protein kinase 1 (Plasmodium falciparum), sequence (P62344 2-524 limits assumed): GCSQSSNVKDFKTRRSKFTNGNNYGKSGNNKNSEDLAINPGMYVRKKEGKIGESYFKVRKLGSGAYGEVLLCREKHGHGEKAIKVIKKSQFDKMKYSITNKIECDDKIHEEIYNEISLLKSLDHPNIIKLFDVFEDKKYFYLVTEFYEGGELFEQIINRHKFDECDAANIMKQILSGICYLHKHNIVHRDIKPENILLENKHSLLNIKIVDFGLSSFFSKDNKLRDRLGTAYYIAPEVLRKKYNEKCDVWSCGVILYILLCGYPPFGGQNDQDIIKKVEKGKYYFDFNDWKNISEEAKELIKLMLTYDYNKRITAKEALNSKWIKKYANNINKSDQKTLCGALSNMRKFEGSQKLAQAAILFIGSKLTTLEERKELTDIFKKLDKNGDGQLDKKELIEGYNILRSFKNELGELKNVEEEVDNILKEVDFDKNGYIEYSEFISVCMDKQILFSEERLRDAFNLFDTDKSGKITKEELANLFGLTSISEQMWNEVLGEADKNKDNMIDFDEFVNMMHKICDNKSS
Assay [15] concerns the target Receptor-interacting serine/threonine-protein kinase 2 (Homo sapiens) (UniProt O43353). The note with it: Compound concentration 1000.0 nM.
The target of assay [16] is Uncharacterized serine/threonine-protein kinase SBK3 (Homo sapiens) (UniProt P0C264). The note with it: Compound concentration 1000.0 nM.
Uncharacterized serine/threonine-protein kinase SBK3 (Homo sapiens), sequence (P0C264 whole entry): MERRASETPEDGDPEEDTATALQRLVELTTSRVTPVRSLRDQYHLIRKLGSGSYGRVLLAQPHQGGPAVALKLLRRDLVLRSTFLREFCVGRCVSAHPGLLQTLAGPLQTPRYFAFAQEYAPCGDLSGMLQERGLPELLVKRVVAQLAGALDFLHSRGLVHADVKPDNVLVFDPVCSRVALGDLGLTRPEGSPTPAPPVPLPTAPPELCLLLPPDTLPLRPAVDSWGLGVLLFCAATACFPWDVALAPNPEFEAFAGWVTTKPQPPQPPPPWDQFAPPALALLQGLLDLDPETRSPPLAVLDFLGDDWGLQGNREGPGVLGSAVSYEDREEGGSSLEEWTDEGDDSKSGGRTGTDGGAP
For assay [17], the target named is SRSF protein kinase 2 (Homo sapiens) (UniProt P78362). The settings on record: Compound concentration 1000.0 nM.
SRSF protein kinase 2 (Homo sapiens), sequence (P78362 whole entry, looked up): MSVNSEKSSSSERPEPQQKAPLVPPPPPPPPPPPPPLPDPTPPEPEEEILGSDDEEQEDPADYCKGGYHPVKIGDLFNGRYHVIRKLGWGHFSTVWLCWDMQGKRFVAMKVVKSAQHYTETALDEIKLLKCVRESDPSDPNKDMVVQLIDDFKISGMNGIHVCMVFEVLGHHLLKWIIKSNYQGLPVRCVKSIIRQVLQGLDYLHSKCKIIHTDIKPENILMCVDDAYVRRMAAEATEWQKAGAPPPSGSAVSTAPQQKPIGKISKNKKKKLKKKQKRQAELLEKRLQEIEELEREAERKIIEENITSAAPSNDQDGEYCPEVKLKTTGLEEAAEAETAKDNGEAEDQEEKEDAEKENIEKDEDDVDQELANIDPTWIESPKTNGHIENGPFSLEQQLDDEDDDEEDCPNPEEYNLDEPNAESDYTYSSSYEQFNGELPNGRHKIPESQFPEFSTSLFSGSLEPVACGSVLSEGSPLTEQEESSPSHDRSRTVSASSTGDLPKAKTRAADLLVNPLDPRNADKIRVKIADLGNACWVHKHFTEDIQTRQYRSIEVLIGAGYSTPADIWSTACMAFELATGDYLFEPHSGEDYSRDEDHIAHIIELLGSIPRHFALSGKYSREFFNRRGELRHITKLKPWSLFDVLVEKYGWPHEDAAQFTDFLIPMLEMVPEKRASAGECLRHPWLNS
The target in assay [18] is T1, 5-hydroxytryptamine receptor 2C (Homo sapiens) (UniProt P28335).
T1 sequence (whole entry): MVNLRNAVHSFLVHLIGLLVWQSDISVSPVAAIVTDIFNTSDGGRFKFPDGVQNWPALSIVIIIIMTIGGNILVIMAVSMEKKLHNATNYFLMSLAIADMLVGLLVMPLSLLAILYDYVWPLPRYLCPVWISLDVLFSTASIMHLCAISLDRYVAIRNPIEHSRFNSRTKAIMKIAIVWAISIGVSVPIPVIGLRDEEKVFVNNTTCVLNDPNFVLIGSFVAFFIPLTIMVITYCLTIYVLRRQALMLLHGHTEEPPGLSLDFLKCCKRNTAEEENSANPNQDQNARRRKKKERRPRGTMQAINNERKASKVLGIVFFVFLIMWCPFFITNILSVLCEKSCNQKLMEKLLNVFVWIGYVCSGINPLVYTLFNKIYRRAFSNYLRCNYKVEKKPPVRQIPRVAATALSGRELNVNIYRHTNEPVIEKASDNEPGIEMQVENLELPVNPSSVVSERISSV
The settings on record: Compound concentration 10.0 uM.

The target in assay [19] is T2, Muscarinic acetylcholine receptor M1 (Homo sapiens) (UniProt P11229).
T2 sequence (whole entry): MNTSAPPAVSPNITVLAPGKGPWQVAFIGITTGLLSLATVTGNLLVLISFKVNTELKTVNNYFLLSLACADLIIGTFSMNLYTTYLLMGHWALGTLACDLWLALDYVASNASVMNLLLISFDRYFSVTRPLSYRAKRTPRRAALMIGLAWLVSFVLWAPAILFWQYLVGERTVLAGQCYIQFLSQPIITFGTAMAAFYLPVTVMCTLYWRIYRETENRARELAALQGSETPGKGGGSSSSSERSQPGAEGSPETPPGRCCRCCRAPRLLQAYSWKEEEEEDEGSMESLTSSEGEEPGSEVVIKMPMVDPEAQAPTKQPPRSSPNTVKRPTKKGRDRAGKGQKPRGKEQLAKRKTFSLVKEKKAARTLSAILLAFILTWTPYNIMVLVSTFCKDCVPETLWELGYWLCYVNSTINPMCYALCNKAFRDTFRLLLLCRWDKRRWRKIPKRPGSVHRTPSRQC
The note with it: Compound concentration 10.0 uM.

The target of assay [20] is T3, Muscarinic acetylcholine receptor M5 (Homo sapiens) (UniProt P08912).
T3 sequence (whole entry): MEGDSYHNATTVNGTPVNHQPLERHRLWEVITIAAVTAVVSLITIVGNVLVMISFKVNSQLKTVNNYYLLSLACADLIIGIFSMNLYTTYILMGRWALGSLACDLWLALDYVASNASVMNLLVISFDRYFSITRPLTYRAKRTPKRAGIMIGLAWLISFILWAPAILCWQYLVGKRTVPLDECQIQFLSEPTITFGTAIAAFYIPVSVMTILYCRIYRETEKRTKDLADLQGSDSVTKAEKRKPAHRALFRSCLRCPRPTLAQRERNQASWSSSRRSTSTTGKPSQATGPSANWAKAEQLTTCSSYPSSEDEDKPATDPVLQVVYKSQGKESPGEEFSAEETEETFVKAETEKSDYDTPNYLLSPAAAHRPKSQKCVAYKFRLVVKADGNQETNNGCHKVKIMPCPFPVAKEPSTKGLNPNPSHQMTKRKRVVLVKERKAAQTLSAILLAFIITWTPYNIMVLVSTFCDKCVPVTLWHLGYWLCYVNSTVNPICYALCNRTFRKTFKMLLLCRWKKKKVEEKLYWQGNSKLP
The settings on record: Compound concentration 10.0 uM.

pKi: −log10 of the molar value.

Sigma intracellular receptor 2, sequence (Q5BJF2 whole entry): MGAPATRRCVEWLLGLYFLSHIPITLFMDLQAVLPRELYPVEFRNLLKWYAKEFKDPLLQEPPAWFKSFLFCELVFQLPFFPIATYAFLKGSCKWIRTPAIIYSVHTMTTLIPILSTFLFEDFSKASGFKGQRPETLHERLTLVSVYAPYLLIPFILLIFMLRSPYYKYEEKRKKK
Calcium/calmodulin-dependent protein kinase type IV (Homo sapiens), sequence (Q16566 whole entry): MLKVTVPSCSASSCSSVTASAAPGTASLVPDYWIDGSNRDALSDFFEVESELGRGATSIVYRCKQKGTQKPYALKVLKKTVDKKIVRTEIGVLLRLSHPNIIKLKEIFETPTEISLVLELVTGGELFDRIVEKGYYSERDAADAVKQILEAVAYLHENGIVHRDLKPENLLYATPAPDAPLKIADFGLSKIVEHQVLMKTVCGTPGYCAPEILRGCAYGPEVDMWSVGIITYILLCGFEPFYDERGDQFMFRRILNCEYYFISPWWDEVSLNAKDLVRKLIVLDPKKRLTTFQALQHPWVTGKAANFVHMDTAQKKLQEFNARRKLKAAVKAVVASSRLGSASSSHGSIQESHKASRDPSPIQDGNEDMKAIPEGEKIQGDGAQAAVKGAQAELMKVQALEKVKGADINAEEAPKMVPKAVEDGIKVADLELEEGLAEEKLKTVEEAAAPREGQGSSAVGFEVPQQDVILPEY
Mast/stem cell growth factor receptor Kit (Homo sapiens), P10721 [L576P], sequence (P10721 whole entry L576P): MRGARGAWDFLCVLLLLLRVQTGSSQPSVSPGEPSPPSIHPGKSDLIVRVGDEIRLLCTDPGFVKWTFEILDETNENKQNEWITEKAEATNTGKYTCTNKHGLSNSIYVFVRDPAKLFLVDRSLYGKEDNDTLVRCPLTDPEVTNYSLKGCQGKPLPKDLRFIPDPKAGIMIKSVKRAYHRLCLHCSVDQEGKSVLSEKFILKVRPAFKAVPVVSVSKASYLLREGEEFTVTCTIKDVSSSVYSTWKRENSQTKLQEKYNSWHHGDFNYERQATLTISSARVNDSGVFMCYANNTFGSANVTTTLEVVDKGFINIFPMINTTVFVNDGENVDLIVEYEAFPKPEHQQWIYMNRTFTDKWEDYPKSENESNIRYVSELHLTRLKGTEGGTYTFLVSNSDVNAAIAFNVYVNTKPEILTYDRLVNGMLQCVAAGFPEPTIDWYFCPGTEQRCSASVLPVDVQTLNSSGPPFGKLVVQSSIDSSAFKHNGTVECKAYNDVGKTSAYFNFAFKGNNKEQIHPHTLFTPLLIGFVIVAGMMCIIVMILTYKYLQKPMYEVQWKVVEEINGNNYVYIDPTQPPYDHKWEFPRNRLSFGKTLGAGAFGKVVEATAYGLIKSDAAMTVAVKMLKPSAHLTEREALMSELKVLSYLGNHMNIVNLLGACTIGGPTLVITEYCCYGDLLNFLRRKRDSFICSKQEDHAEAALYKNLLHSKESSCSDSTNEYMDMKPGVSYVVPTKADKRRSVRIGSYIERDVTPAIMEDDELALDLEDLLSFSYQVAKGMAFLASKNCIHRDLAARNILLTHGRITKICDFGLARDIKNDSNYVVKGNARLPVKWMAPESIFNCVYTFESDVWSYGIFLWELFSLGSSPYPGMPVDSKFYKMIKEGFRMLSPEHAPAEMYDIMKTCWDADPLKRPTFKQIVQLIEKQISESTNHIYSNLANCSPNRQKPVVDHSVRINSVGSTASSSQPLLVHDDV
Cyclin-dependent kinase 4 (Homo sapiens), sequence (P11802 whole entry): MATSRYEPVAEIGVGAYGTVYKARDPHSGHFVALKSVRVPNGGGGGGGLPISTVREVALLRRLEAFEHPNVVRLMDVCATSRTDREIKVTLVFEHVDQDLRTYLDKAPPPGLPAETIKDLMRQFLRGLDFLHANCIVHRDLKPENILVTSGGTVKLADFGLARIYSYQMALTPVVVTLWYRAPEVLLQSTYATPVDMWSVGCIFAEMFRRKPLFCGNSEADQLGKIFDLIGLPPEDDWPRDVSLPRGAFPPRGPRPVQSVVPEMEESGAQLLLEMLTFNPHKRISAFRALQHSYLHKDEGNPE

What is called pKi is the Ki on a negative log10 scale, so that one unit is a factor of ten. What is called inhibition is the relative decrease from the control value, in per cent. Regarding `CNC(=O)Nc1ccc2c(c1)CC[C@@]21OC(=O)N(CC(=O)N(Cc2ccc(F)cc2)[C@@H](C)C(F)(F)F)C1=O` [A-485], the pKi in assay [1] was 5.26. For the same compound, in assay [1] (read-out: pKi (converted)), the Ki was 5.13 µM. The inhibition in assay [2] was 28%; in [3], 12%; in [18] it was 16.5%; in [19] it was 2.64%; in assay [20], 2.39%. The residual activity in [4] is 78%; in assay [5] it was 80%; in [6], 98%; in [7], 75%; in assay [8], 79%; in assay [9], 83%. Besides, the residual activity in [10] was 81%; in assay [11], 100%; in assay [12], 95%; in assay [13], 73%; in assay [14] it was 83%; in assay [15], 100%. For the same compound, the residual activity in assay [16] was 93%; in [17] it was 100%.

Consider `CNC(=O)Nc1ccc2c(c1)[C@@]1(CC2)OC(=O)N(CC(=O)N(Cc2ccc(F)cc2)[C@@H](C)C(F)(F)F)C1=O` [A-486], for which, in [1], the pKi is 5.49. For the same compound, the inhibition in assay [2] is 12%; in [3], -5%; in assay [18] it was -3.43%; in assay [19] it was 5.42%; in assay [20], -2.77%. The residual activity was 86% in [4]; 99% in assay [5]; 100% in assay [6]; 85% in [7]; 100% in assay [8]; 92% in [9]. For the same compound, the residual activity in [10] is 73%; in [11], 81%; in [12], 78%; in [13] it was 80%; in assay [14], 93%; in assay [15] it was 83%. Also, the residual activity in assay [16] and in [17] was 100% in each case.
